From patent US20120059029A1 (Elan Pharmaceuticals, Inc., priority 2010, published 2012)

Columns and labels:
Assay type in all cases: cell-based
[1] = molecular target: T1, α4β1 (Homo sapiens, UniProt P05556+P13612); assay: α4β1-dependent Jurkat cell adhesion to human fibronectin; details: TS2/16-activated α4β1, anti-α5 antibody present; read-out: EC50, Jurkat adhesion to FN
T1 construct: Jurkat™ lymphoma T cells express high levels of α4β1 integrin; endogenous in cells; host or cells: Jurkat cells
T1 sequence (P13612 34-1032): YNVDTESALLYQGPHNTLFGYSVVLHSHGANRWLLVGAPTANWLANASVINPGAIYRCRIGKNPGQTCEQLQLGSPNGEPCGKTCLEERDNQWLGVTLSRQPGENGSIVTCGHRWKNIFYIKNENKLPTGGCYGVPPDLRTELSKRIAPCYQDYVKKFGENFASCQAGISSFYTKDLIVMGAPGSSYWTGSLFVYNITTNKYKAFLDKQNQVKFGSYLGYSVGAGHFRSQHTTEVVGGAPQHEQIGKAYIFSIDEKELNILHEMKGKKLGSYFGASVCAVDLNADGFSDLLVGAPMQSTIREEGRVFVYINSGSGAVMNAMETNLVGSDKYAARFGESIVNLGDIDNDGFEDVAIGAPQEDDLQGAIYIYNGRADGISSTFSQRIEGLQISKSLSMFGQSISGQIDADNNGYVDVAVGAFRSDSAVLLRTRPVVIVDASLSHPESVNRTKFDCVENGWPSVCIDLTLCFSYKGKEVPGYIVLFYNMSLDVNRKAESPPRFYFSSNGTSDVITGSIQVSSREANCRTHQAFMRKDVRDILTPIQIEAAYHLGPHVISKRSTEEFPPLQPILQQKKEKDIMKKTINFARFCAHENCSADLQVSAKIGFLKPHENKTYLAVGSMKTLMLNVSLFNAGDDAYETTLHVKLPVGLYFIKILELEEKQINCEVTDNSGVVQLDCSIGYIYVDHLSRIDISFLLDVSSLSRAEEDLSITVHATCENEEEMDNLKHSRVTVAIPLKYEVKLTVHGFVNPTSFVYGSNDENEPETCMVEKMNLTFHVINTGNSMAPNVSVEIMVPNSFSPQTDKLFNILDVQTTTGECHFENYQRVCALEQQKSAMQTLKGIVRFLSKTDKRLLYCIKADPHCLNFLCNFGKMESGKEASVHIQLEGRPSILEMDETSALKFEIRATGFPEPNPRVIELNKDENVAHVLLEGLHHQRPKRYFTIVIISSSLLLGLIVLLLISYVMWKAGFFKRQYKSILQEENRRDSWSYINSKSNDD
T1 sequence (P05556 21-798): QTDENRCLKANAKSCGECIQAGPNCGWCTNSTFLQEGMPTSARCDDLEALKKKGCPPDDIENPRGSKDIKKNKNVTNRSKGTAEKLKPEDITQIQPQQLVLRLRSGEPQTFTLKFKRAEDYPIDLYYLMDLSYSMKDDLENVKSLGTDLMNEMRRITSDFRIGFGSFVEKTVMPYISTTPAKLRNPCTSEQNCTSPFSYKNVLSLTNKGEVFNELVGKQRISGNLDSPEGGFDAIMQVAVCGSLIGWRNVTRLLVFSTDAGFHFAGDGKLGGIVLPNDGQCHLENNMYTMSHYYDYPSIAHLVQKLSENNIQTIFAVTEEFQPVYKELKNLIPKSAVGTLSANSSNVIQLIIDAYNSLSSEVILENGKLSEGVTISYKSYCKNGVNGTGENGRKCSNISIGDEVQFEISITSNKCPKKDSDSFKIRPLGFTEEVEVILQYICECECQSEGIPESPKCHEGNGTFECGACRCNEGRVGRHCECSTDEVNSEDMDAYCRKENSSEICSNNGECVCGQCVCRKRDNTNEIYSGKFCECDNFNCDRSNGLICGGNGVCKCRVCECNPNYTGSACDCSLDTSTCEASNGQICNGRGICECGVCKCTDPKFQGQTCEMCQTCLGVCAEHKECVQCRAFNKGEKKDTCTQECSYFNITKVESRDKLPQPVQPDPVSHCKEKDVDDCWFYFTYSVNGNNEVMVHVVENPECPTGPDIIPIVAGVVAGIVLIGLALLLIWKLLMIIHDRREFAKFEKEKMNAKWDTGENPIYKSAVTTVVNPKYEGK
Experimental: Jurkat™ cells adhere to fibronectin (FN) in an […] fashion.
5 μg/mL of an inhibitory antibody against α5 integrin (BD Pharmingen, Franklin Lakes, N.J.) is added to the buffer to prevent α5-dependent adhesion to FN.

[2] = molecular target: T2, activated α4β1 on Jurkat cells (Homo sapiens, UniProt P05556+P13612); assay: α4β1-FN capture assay in human serum (Jurkat cells, FACS); details: 50% human serum
T2 construct: Jurkat™ lymphoma T cells express high levels of α4β1 integrin; endogenous in cells; host or cells: Jurkat cells
T2 sequence (P13612 34-1032): as the sequence (P13612 34-1032) above
T2 sequence (P05556 21-798): as the sequence (P05556 21-798) above
Experimental: The α4β1 receptors on Jurkat™ cell surfaces can capture, in solution, the endogenous FN present in serum.
An equal volume of assay buffer containing 50% human serum, the antibody 15/7 (2×, 20 μg/ml) and MnCl2 (2×, 3 mM) was then added to each well. These reagents served as α4 integrin activating agents, allowing the receptor to capture FN from the serum. The plate was then incubated for another 30 minutes at RT.

[3] = molecular target: T1, α4β1; assay: α4β1-dependent Jurkat adhesion to rs-hu-VCAM-1; details: read-out: EC50, adhesion of Jurkat cells to human VCAM-1
Source text: Jurkat™ lymphoma T cells express high levels of α4β1 integrin and strongly adhere to VCAM-1 in an α4 integrin-dependent fashion.

CC1(C)SCN(S(=O)(=O)c2cccnc2)[C@@H]1C(=O)N[C@@H](Cc1ccc(-n2c(=O)[nH]c3cccnc32)cc1)C(=O)O
EC50 [1]: 0.1 nM | fold less potent than Formula (I), FN capture [2]: 2.6 fold | EC50 [3]: 11.6 nM
